{
  "source": "patent US7897723B2",
  "about": "“ErbB receptor-derived peptide fragments” (Københavns Universitet, priority 2006, dated 2011)",
  "key": {"L929 cells [1]": {"system": "L929 cells", "test": "Cell proliferation (BrdU incorporation)", "format": "cell-based", "protocol": "2000 L929 cells (ECACC no: 85011425) per well were seeded in a 96 well plate in full medium (containing 10% foetal calf serum) or starvation medium (serum-free). Peptides, ErbB1 kinase inhibitor PD153035 (Calbiochem), and EGF (Sigma-Aldrich) were added immediately after seeding of the cells (for experiments done in full serum) or after 8 hours of incubation (for experiments done in starvation medium) in the concentrations indicated in figures. Cells were grown for 6 hours, then 10 μM bromodeoxyuridine (BrdU) was added, and cells were grown for additional 18 hours. Then, BrdU incorporation in the cells was assayed using the Biotrak ELISA System, version 2 from Amersham Biosciences Europe GmbH (Buckinghamshire, UK) following the manufacturer's protocol."}, "L929 cells [2]": {"system": "L929 cells", "test": "Cell motility assay (time-lapse video recording)", "format": "cell-based", "protocol": "Subconfluent L929 cells were infected with Ad5.CMV-GFP virus according to the manufacturer instruction (Clontech). 24 h after transfection, cells were seeded at a density of 4×10^3 cells/cm^2 and grown for 24 h. Cells were then treated with the indicated concentration of peptide and EGF, and cell positions were recorded every 15 min at 25 fixed positions in each culture for 4 hours using automatic time-lapse video recording. The workstation employed comprised an Eclipse TE300 inverted microscope (Nikon, Japan) equipped with a heated, movable, computer controlled microscope stage. Recordings were performed using the PRIGRA software (developed at the Protein Laboratory, Copenhagen, Denmark).\nAnalysis of individual cell motility was performed using an automatic procedure for single cell motility evaluation. Briefly, automatic marking of cell positions in consecutive video frames was used for determination of the migration tracks of the cells during the whole recording period. The obtained cell coordinate data were used for the calculation of motility parameters by means of the ‘complex overlapping’ method. Briefly, the mean squared cell displacement, ? d^2 ? , was calculated as the Euclidean distance between two points corresponding to the initial and final position of the cell. The rate of diffusion, R, was calculated by fitting the curve of ? d^2 ? plotted against time to the equation ? d^2(ti) ? =R(τ−P(1−e^(−τ/P))), • where ti is the time interval of interest, τ is the time interval between observations, i.e. 15 min, and P is the persistence time in direction (28). The mean cell speed, Sτ, was calculated as the mean cell displacement taking place between discrete observations ( ? dτ ? ) divided by the time interval between discrete observations (τ), according to the equation:\n[formula] • The mean cell-path-length, ? L ? , for a sample of a population of cells at a given time of observation, was calculated as:\n[formula] • The locomotive index, LI, was calculated as the ratio of the mean cell displacement and the mean cell-path-length:\n[formula] LI was used as a measure of the directional persistence of the cells."}, "ErbB1 [3]": {"target": "T1, ErbB1 (Homo sapiens, UniProt P00533)", "test": "ErbB receptor phosphorylation, NR6 wtEGFR cells", "format": "cell-based", "set-up": "expressed in transfected cells; host or cells: NR6 fibroblastoid cells (NR6 wtEGFR)", "conditions": "10 ng/ml EGF for 10 min, immunoblotting (FIG. 7)", "protocol": "The cells employed for this assay were NR6 wtEGFR cells, which are fibroblastoid cells stably transfected with ErbB1, and human head and neck tumor-derived HN5 cell. Confluent NR6 wtEGFR or HN5 cells were treated with peptide in the indicated concentrations for 30 min, then stimulated with 10 ng/ml EGF (Sigma-Aldrich, St. Louis, Mo., USA) for 10 min. Cells were lysed in lysis buffer (1% (v/v) Triton X-100, 150 mM NaCl, 10 mM Tris pH 7.4, 1 mM EDTA, 1 mM EGTA, 0.5% (v/v) NP-40, phosphatase inhibitors (Phosphatase Inhibitor Cocktail Set II from Calbiochem, La Jolla, Calif., USA) and protease inhibitors (Complete™ Protease Inhibitor Cocktail from Boehringer Mannheim Biochemica, Mannheim, Germany)), and cleared lysate samples containing equal amounts of total protein (as determined by a bicinchoninic acid assay (Pierce, Rockford, Ill., USA)) were subjected in duplicates to 4-12% SDS-PAGE and immunoblotting. […] The intensity of bands was quantified using densitometric analysis employing the software package GeneTools (Syngene, Cambridge, UK).\nNR6 wtEGFR cells (a fibroblastoid cell line stably transfected with ErbB1) were treated with peptide in the indicated concentrations for […], then stimulated with 10 ng/ml EGF for 10 min. […] The intensity of bands was quantified using densitometric analysis employing the software package GeneTools (Syngene, Cambridge, UK)."}, "HN5 cells": {"system": "HN5 cells", "test": "Cell viability / cell growth (MTS staining)", "format": "cell-based, human", "conditions": "HN5 cells", "protocol": "2000 HN5 cells per well were seeded in a 96 well plate in full medium (containing 10% fetal calf serum) or starvation medium (serum-free). After 12 hours of incubation, peptides or ErbB1 kinase inhibitor PD153035 (Calbiochem) and/or EGF (Sigma-Aldrich) were added in the concentrations indicated in figures. Cells were grown for 72 hours, then 20 μl MTS One Solution Reagent (Promega, Madison, Wis., USA) were added per 100 μl culture medium in each well, and the plates were incubated for 1-2 hours at 37° C., followed by absorbance measurements at 490 nm."}, "ErbB1 [4]": {"target": "T1, ErbB1", "test": "ErbB receptor phosphorylation, HN5 cells", "format": "cell-based", "set-up": "the ErbB1 overexpressing human head and neck cancer cell line HN5; endogenous in cells; host or cells: HN5 human head and neck cancer cells", "conditions": "100 μM peptide for 30 min, 10 ng/ml EGF for 10 min (FIG. 8)", "protocol": "The cells employed for this assay were NR6 wtEGFR cells, which are fibroblastoid cells stably transfected with ErbB1, and human head and neck tumor-derived HN5 cell. Confluent NR6 wtEGFR or HN5 cells were treated with peptide in the indicated concentrations for 30 min, then stimulated with 10 ng/ml EGF (Sigma-Aldrich, St. Louis, Mo., USA) for 10 min. Cells were lysed in lysis buffer (1% (v/v) Triton X-100, 150 mM NaCl, 10 mM Tris pH 7.4, 1 mM EDTA, 1 mM EGTA, 0.5% (v/v) NP-40, phosphatase inhibitors (Phosphatase Inhibitor Cocktail Set II from Calbiochem, La Jolla, Calif., USA) and protease inhibitors (Complete™ Protease Inhibitor Cocktail from Boehringer Mannheim Biochemica, Mannheim, Germany)), and cleared lysate samples containing equal amounts of total protein (as determined by a bicinchoninic acid assay (Pierce, Rockford, Ill., USA)) were subjected in duplicates to 4-12% SDS-PAGE and immunoblotting. One membrane was probed with anti-phospho-EGFR (phosphotyrosine 1068) antibody (Cell Signaling Technology, Danvers, Mass., USA), the other with anti-EGFR antibody (Cell Signaling Technology). Detection was carried out using horseradish peroxidase (HRP)-conjugated secondary antibodies (DAKO, Denmark) and enhanced chemiluminiscence (Pierce). The intensity of bands was quantified using densitometric analysis employing the software package GeneTools (Syngene, Cambridge, UK)."}},
  "data": [
    {"sequence": "LVYNKLTFQLEPNPHTK (Inherbin 3 peptide) [Inherbin3]", "values": [
      {"measurement": "effect on EGF-induced cell proliferation", "setting": "L929 cells [1]; L929 cells, full medium, BrdU incorporation (FIG. 2, FIG. 3)", "result": "able to inhibit EGF-induced cell proliferation significantly"},
      {"measurement": "inhibition of the EGF-induced effects", "setting": "L929 cells [1]; summary for cell proliferation, cell motility and ErbB1 phosphorylation in cells with a lower ErbB1 expression level", "result": "~100", "unit": "%"},
      {"measurement": "effect on mean cell speed", "setting": "L929 cells [2]; L929 cells (FIG. 5C)", "result": "did not significantly affect the mean cell speed"},
      {"measurement": "effect on locomotive index, LI", "setting": "L929 cells [2]; L929 cells (FIG. 5D)", "result": "reflected the changes seen in rate of diffusion"},
      {"measurement": "effect on rate of diffusion, R", "setting": "L929 cells [2]; L929 cells, absence of EGF, peptide dose 10 μM (FIG. 5B)", "result": "stimulated the rate of diffusion to the level of the EGF-induced response"},
      {"measurement": "effect on EGF-induced increase in rate of diffusion, R", "setting": "L929 cells [2]; L929 cells, with EGF (FIG. 5B)", "result": "significantly inhibited"},
      {"measurement": "effect on EGF-induced increase in rate of diffusion, R", "setting": "L929 cells [2]; L929 cells, with EGF, peptide dose 40 μM (FIG. 5B)", "result": "completely blocked the EGF-induced increase in rate of diffusion"},
      {"measurement": "effect on EGF-induced ErbB1 phosphorylation", "setting": "ErbB1 [3]", "result": "inhibited EGF-induced ErbB1 phosphorylation significantly"},
      {"measurement": "effect on serum-induced cell growth", "setting": "HN5 cells; full medium containing 10% serum (FIG. 6B)", "result": "inhibited serum-induced cell growth"},
      {"measurement": "inhibition of the EGF-induced increase in cell growth", "setting": "HN5 cells; starvation medium, EGF-stimulated, 3 days, MTS (FIG. 6A)", "result": "~35", "unit": "%"},
      {"measurement": "effect on basal cell growth", "setting": "HN5 cells; starvation medium, without EGF-stimulation (FIG. 6A)", "result": "no effect on the basal cell growth"},
      {"measurement": "effect on EGF-induced ErbB1 phosphorylation", "setting": "ErbB1 [4]", "result": "significantly inhibited EGF-induced ErbB1 phosphorylation"}
    ]}
  ]
}
